In patent US20200361871A1 (Enterprise Therapeutics Ltd., priority 2018, published 2020):

Target: human TMEM16A (TMEM16Aabc variant) (Homo sapiens, UniProt Q5XXA6, DEL476-501, form not given)
Experiment: Automated whole-cell patch clamp (Qpatch) TMEM16A potentiator assay in FRT cells stably expressing human TMEM16A
Format: cell-based
Conditions: for % Potentiation @ 3.33 μM Avg: 3.33 μM solution of test compound, percentage increase of baseline TMEM16A current; for EC50: calculated EC50, Qpatch TMEM16A current at +70 mV
In short: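 Potentiation was read as the rise in peak +70 mV current over baseline (%), from cumulative 5-min additions of compound. Recordings used whole-cell automated patch of FRT cells stably carrying human TMEM16Aabc, with pipette Ca2+ buffered to give ~20% maximal current. EC50 and efficacy came from concentration-response fits.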

human TMEM16A (TMEM16Aabc variant), sequence (Q5XXA6 with tags, fused parts or gaps DEL476-501): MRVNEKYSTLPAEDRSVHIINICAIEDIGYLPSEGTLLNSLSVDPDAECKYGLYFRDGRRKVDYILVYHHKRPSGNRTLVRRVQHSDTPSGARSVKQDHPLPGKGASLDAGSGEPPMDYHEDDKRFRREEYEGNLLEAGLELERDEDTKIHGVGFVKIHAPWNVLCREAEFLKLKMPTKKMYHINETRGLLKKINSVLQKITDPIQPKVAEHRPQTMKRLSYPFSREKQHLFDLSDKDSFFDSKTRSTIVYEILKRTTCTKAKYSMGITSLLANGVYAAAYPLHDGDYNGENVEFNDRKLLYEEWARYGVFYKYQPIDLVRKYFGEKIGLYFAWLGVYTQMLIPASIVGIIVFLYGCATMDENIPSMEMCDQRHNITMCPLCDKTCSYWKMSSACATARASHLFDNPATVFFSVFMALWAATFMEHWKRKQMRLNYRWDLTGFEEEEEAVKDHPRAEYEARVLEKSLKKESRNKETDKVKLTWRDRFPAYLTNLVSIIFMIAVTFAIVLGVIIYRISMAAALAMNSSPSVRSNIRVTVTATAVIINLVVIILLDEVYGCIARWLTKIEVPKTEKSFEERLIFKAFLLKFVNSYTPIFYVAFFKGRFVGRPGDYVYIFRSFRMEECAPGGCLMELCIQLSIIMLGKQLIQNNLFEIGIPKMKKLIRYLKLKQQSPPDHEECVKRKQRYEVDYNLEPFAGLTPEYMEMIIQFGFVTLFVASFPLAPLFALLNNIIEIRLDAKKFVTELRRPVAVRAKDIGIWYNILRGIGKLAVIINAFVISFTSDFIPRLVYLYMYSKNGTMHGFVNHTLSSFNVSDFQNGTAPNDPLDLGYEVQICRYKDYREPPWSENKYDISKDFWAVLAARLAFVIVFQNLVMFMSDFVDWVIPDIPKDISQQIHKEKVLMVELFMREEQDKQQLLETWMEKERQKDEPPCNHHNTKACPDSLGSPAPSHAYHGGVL

Compound | % Potentiation @ 3.33 μM Avg | EC50
C#CC(C)(C)NC(=O)c1cc(NC(=O)Cc2cc(C(F)(F)F)ccc2O)ccn1 [Example 78.2, N-(1,1-Dimethylprop-2-ynyl)-4-[[2-[2-hydroxy-5-(trifluoromethyl)phenyl]acetyl]amino]pyridine-2-carboxamide] | 86% | 20 nM
O=C(Cc1cc(Cl)ccc1O)Nc1ccnc(C(=O)NCc2ccncc2)c1 [Example 32.4, 4-[[2-(5-Chloro-2-hydroxy-phenyl)acetyl]amino]-N-(4-pyridylmethyl)pyridine-2-carboxamide] | 187% | 710 nM
O=C(Cc1ccccc1Cl)Nc1ccnc(C(=O)NC2CC2(F)F)c1 (stereo not drawn) [Example 30.6, 4-[[2-(2-Chlorophenyl)acetyl]amino]-N-(2,2-difluorocyclopropyl)pyridine-2-carboxamide] | 80% | 
CC(C)(C)NC(=O)c1cc(NC(=O)Cc2cc(-c3ccccc3)ccc2O)ccn1 [Example 26, N-tert-Butyl-4-[[2-(2-hydroxy-5-phenyl-phenyl)acetyl]amino]pyridine-2-carboxamide] | 108% | 
O=C(Cc1cc(Cl)ccc1O)Nc1ccnc(C(=O)N[C@@]2(CO)CCOC2)c1 (single isomer, unassigned) [Example 35b, 4-[[2-(5-Chloro-2-hydroxy-phenyl)acetyl]amino]-N-[(3R)-3-(hydroxymethyl)tetrahydrofuran-3-yl]pyridine-2-carboxamide or 4-[[2-(5-chloro-2-hydroxy-phenyl)acetyl]amino]-N-[(3S)-3-(hydroxymethyl)tetrahydrofuran-3-yl]pyridine-2-carboxamide] | 190% | 310 nM
CC(C)(C#N)NC(=O)c1cc(NC(=O)CC2CCC(F)(F)CC2)ccn1 [Example 83.10, N-(1-Cyano-1-methyl-ethyl)-4-[[2-(4,4-difluorocyclohexyl)acetyl]amino]pyridine-2-carboxamide] | 62% | 
CC1(NC(=O)c2cc(NC(=O)Cc3cc(Cl)ccc3O)ccn2)CC1 [Example 35.8, 4-[[2-(5-Chloro-2-hydroxy-phenyl)acetyl]amino]-N-(1-methylcyclopropyl)pyridine-2-carboxamide] | 250% | 180 nM
CC(C)(C)NC(=O)c1cc(NC(=O)Cc2ccc3ncccc3c2)ccn1 [Example 5.29, N-tert-Butyl-4-[[2-(6-quinolyl)acetyl]amino]pyridine-2-carboxamide] | 190% | 860 nM
CC(C)NC(=O)c1cc(NC(=O)Cc2cc(F)ccc2O)ccn1 [Example 81.2, 4-[[2-(5-Fluoro-2-hydroxy-phenyl)acetyl]amino]-N-isopropyl-pyridine-2-carboxamide] | 103% | 420 nM
COc1ccc(Cl)cc1CC(=O)Nc1ccnc(C(=O)NC(C)(C)C)c1 [Example 5.10, N-tert-Butyl-4-[[2-(5-chloro-2-methoxy-phenyl)acetyl]amino]pyridine-2-carboxamide] | 78% | 3770 nM
O=C(Cc1cc(Cl)ccc1O)Nc1ccnc(C(=O)N[C@H]2CCCC[C@@H]2O)c1 [Example 31.3, 4-[2-(5-Chloro-2-hydroxyphenyl)acetamido]-N-[(1s,2s)-2-hydroxycyclohexyl] pyridine-2-carboxamide] | 205% | 210 nM
C#CC(C)(C)NC(=O)c1cc(NC(=O)Cc2cccc3cc[nH]c23)ccn1 [Example 79.3, N-(1,1-Dimethylprop-2-ynyl)-4-[[2-(1H-indol-7-yl)acetyl]amino]pyridine-2-carboxamide] | 64% | 240 nM
CC(CC(=O)Nc1ccnc(C(=O)NC(C)(C)C#N)c1)c1ccc(F)cc1 (stereo not drawn) [Example 83.31, N-(1-Cyano-1-methyl-ethyl)-4-[3-(4-fluorophenyl)butanoylamino]pyridine-2-carboxamide] | 78% | 
COc1cccc(F)c1CC(=O)Nc1cccc(C(=O)NC(C)(C)C)c1 [Example 4.7, N-tert-Butyl-3-[[2-(2-fluoro-6-methoxy-phenyl)acetyl]amino]benzamide] | 68% | 
O=C(Cc1cc(Cl)ccc1O)Nc1ccnc(C(=O)N[C@H]2CC[C@@H](O)C2)c1 [Example 35.3, 4-[[2-(5-Chloro-2-hydroxy-phenyl)acetyl]amino]-N-[(1s,3r)-3-hydroxycyclopentyl]pyridine-2-carboxamide] | 144% | 
CCOC(=O)CC(C)(C)NC(=O)c1cc(NC(=O)Cc2cc(Cl)ccc2O)ccn1 [Example 35.13, ethyl 3-[[4-[[2-(5-chloro-2-hydroxy-phenyl)acetyl]amino]pyridine-2-carbonyl]amino]-3-methyl-butanoate] | 191% | 350 nM
CC(C)(C#N)NC(=O)c1cc(NC(=O)C2CCC(F)(F)C2)ccn1 (stereo not drawn) [Example 83.3, N-(1-Cyano-1-methyl-ethyl)-4-[(3,3-difluorocyclopentanecarbonyl)amino]pyridine-2-carboxamide] | 16% | 

Compound | % Potentiation @ 3.33 μM Avg | EC50
C#CC(C)(C)NC(=O)c1cc(NC(=O)CC2CCC(F)(F)CC2)ccn1 [Example 5.34, 4-[[2-(4,4-Difluorocyclohexyl)acetyl]amino]-N-(1,1-dimethylprop-2-ynyl)pyridine-2-carboxamide] | 185% | 640 nM
CC(C)(C)NC(=O)c1cc(NC(=O)Cc2c(Cl)cccc2Cl)ccn1 [Example 5.17, N-tert-Butyl-4-[[2-(2,6-dichlorophenyl)acetyl]amino]pyridine-2-carboxamide] | 94% | 650 nM
CC(C)(C)NC(=O)c1cc(NC(=O)Cc2ccc(Cl)c(O)c2)ccn1 [Example 3.14b, N-tert-Butyl-4-[[2-(4-chloro-3-hydroxy-phenyl)acetyl]amino]pyridine-2-carboxamide] | 251% | 40 nM
COCC(C)(CO)NC(=O)c1cc(NC(=O)Cc2cc(Cl)ccc2O)ccn1 (stereo not drawn) [Example 73, 4-[[2-(5-Chloro-2-hydroxy-phenyl)acetyl]amino]-N-[1-(hydroxymethyl)-2-methoxy-1-methyl-ethyl]pyridine-2-carboxamide] | 196% | 310 nM
CC(C)(C)NC(=O)c1cc(NC(=O)Cc2cc(Cl)ccc2O)c(Cl)cn1 [Example 55, N-tert-Butyl-5-chloro-4-[[2-(5-chloro-2-hydroxy-phenyl)acetyl]amino]pyridine-2-carboxamide] | 114% | 
CC(C)(C)NC(=O)c1cc(NC(=O)C2Cc3ccccc3C2)ccn1 [Example 23.3, N-tert-Butyl-4-(indane-2-carbonylamino)pyridine-2-carboxamide] | 59% | 470 nM
N#CC1(NC(=O)c2cc(NC(=O)Cc3ccccc3Cl)ccn2)CCOCC1 [Example 23.15, 4-[[2-(2-Chlorophenyl)acetyl]amino]-N-(4-cyanotetrahydropyran-4-yl)pyridine-2-carboxamide] | 147% | 1190 nM
N#CC12CC(NC(=O)c3cc(NC(=O)Cc4ccccc4Cl)ccn3)(C1)C2 [Example 30.5, 4-[[2-(2-Chlorophenyl)acetyl]amino]-N-(1-cyano-3-bicyclo[1.1.1]pentanyl) pyridine-2-carboxamide] | 63% | 
CC1(NC(=O)c2cc(NC(=O)Cc3cc(Cl)ccc3O)ccn2)CCCC1 [Example 38, 4-[[2-(5-Chloro-2-hydroxy-phenyl)acetyl]amino]-N-(1-methylcyclopentyl)pyridine-2-carboxamide] | 307% | 50 nM
CC(C)(C#N)NC(=O)c1cc(NC(=O)c2cnc(C3CC3)nc2)ccn1 [Example 83.8, N-[2-[(1-Cyano-1-methyl-ethyl)carbamoyl]-4-pyridyl]-2-cyclopropyl-pyrimidine-5-carboxamide] | 35% | 
O=C(Cc1cc(Cl)ccc1O)Nc1ccnc(C(=O)N[C@H]2CCCC[C@H]2CO)c1 [Example 35.2, 4-[[2-(5-Chloro-2-hydroxy-phenyl)acetyl]amino]-N-[(1s,2r)-2-(hydroxymethyl)cyclohexyl]pyridine-2-carboxamide] | 300% | 610 nM
Cc1nc(-c2ccccc2)sc1C(=O)Nc1ccnc(C(=O)NC(C)(C)C#N)c1 [Example 83.28, N-[2-[(1-Cyano-1-methyl-ethyl)carbamoyl]-4-pyridyl]-4-methyl-2-phenyl-thiazole-5-carboxamide] | 20% | 
O=C(Cc1cc(Cl)ccc1O)Nc1ccnc(C(=O)N[C@H]2CCC[C@H]2O)c1 [Example 35.19, 4-[[2-(5-Chloro-2-hydroxy-phenyl)acetyl]amino]-N-[(1S,2R)-2-hydroxycyclopentyl]pyridine-2-carboxamide] | 248% | 470 nM
CC(C)(C#N)NC(=O)c1cc(NC(=O)Cc2cc(Cl)ccc2O)ccn1 [Example 34, 4-[[2-(5-Chloro-2-hydroxy-phenyl)acetyl]amino]-N-(1-cyano-1-methyl-ethyl)pyridine-2-carboxamide] | 245% | 90 nM
O=C(Cc1cc(Cl)ccc1O)Nc1ccnc(C(=O)NC(CO)c2ccccn2)c1 (stereo not drawn) [Example 35.11, 4-[[2-(5-Chloro-2-hydroxy-phenyl)acetyl]amino]-N-[2-hydroxy-1-(2-pyridyl)ethyl] pyridine-2-carboxamide] | 107% | 
COc1ccc(COc2ccc(Cl)cc2CC(=O)Nc2ccnc(C(=O)NC(C)(C)C)c2)cc1 [Example 56, N-tert-Butyl-4-[[2-[5-chloro-2-[(4-methoxyphenyl)methoxy]phenyl]acetyl]amino]pyridine-2-carboxamide] | 76% | 
N#CC1(NC(=O)c2cc(NC(=O)Cc3ccccc3Cl)ccn2)CCCC1 [Example 30.12, 4-[[2-(2-Chlorophenyl)acetyl]amino]-N-(1-cyanocyclopentyl)pyridine-2-carboxamide] | 314% | 
